# Literature values as cited in patent publication US8889725B2, “Sugar-based bait” (Bayer Cropscience AG, priority 2006, dated 2014).
# Test system: Tapinoma sessile
smiles,measurement,setting,value
"CCOP(=S)(OCC)O/N=C(\C#N)c1ccccc1 [phoxim, O,O-diethylthionophosphoryl-α-oximinophenylacetonitrile]",control of the ants,baits with 0.05% by weight of phoxim in blackberry syrup or blackberry jam,complete control
same,acceptance of the bait by ants,baits with 0.5% to 1% by weight of phoxim,repellent action
